Laboratory results: US20100130598A1, “METHODS FOR INDUCING PROGRAMMED CELL DEATH” (Novogen Research Pty Ltd., priority 2008, published 2010)

Key:
Type in all cases: cell-based, human
Bid, Bax, Beclin-1 = experiment: Western blot of cell lysates and mitochondrial fractions for Bid, Bax, Beclin-1; details: EOC cells
Description: Protein preparation and cellular fractionation. After drug treatment, protein was extracted and measured as previously described (Alvero et al, 2006). For separation of the cytoplasmic and mitochondrial fractions, cell pellets were processed using the ApoAlert™ Cell Fractionation Kit (BD Biosciences, San Jose, Calif.) according to the manufacturer's instructions. For separation of the cytoplasmic and nuclear fractions, pellets were processed using NE-PER Nuclear and Cytoplasmic Extraction (Pierce Biotechnology, Inc., Rockford, Ill.).
SDS-PAGE and Western blots. Cell lysates (20 μg protein) were denatured in sample buffer (2.5% SDS, 10% glycerol, 5% β-mercapto-ethanol, 0.15 M Tris (pH=6.8) and 0.01% bromophenol blue) and subjected to 12% SDS-PAGE as previously described (Kamsteeg et al, 2003). The following antibodies and concentrations were used: mouse anti-XIAP (BD, 1:1,000), rabbit anti-MAP LC3 (1:200), rabbit anti-actin (Sigma, 1:10,000), rabbit anti-phosphorylated Akt (Cell Signaling, 1:1,000), rabbit anti-Akt (Cell Signaling, 1:1000), rabbit anti-phosphorylated mTOR (Cell Signaling, 1:1000), rabbit anti-mTOR (Cell Signaling, 1:1000), rabbit anti-cytochrome c (Clontech Laboratories, Inc, Mountainview, Calif., 1:100), rabbit anti-Omi (R&D Systems, Minneapolis, Minn., 1:5000), rabbit anti-Bid (Cell Signaling, 1:1000), mouse anti-Bax (BD Pharmingen, 1:250), rabbit anti-VDAC (Sigma Aldrich, 1:2000), mouse anti-Bcl2 (BD Pharmingen, 1:500), rabbit anti-AIF (Sigma Aldrich, 1:1000), rabbit anti-EndoG (Sigma Aldrich, 1:1000), mouse anti-topoisomerase I (BD Pharmingen, 1:10,000). Proteins were visualized using enhanced chemiluminescence (Pierce, Rockford Ill.).

caspases-3/7, -8, and -9 = experiment: Caspase-3/7, -8, and -9 activity assay (Caspase-Glo) on cell lysates; details: EOC cells, 24 h; increasing concentrations of Compound 1 or 2 μM Paclitaxel
Description: Protein preparation and cellular fractionation. After drug treatment, protein was extracted and measured as previously described (Alvero et al, 2006). For separation of the cytoplasmic and mitochondrial fractions, cell pellets were processed using the ApoAlert™ Cell Fractionation Kit (BD Biosciences, San Jose, Calif.) according to the manufacturer's instructions. For separation of the cytoplasmic and nuclear fractions, pellets were processed using NE-PER Nuclear and Cytoplasmic Extraction (Pierce Biotechnology, Inc., Rockford, Ill.). Caspase-3/7, -8, and -9 activity assay. Ten μg of protein in a 50 μl total volume was mixed with 50 μl of equilibrated Caspase-Glo^10 3/7, 8, or 9 reagents (Promega). After incubating at room temperature for 1 h, luminescence was measured using TD 20/20 Luminometer (Turner Designs, Sunnyvale, Calif.). Blank values were subtracted and fold-increase in activity was determined in relation to the control non-treatment.

[1] = system: Caspase 2, 3 and 9 in HPAC cells; experiment: In situ caspase activity by flow cytometry, HPAC
Procedure: (§1) Cells. Human pancreatic cell lines HPAC, MIAPaCa-2 and PANC-1 were obtained from the ATCC. (Manassas, Va.). The cells were maintained in DMEM media with Gln and high glucose (Mediatech, Manassas, Va.) with 10% fetal bovine serum (FBS, HyClone, Logan, Utah) and pencillin/streptomycin.
[…] The cells were incubated with caspase substrates for 1 h at 37° C., 5% CO2, then probed with Annexin-V-Cy5 and sytox blue. Caspase +ve cells were gated as shown in the histograms and these cells are indicated on the Annexin-V-Cy5/sytox blue spectra as blue cells. In situ caspase activity was assayed using fluorescent substrates. For Caspase 2, FITC-VDVAD-fmk (Biovision K182-100), for Caspase 3, FITC-DEVD-fmk (K183-100) and for Caspase 9, FITC-LEHD-fmk (K199-100) was used. These substrates bind irreversibly to their respective activated caspases, and caspase activation was quantitated by flow cytometry. After 1 hr incubation at 37° C. in 5% CO2, the cells were washed with DPBS containing 5% FBS and resuspended in Annexin-V binding buffer containing Annexin-V-Cy5 (Biovision K103-3) and sytox blue (Invitrogen), a dye that binds necrotic cells. Caspase activation, apoptosis and necrosis were measured simultaneously using a violet, blue and red laser in a BD LSRII flow cytometer.

PANC-1 cells = experiment: Apoptosis/necrosis by FACS (Annexin-V-FITC/PI), PANC-1; details: PANC-1, dose-escalating, 48 hr exposure
Procedure: as §1
FACS Analysis. Apoptosis was measured by FACS analysis using Annexin-V-FITC and propidium iodide (PI) (Biovision, Mountain View, Calif.) as probes (Ahn et al., 2003). Mitochondrial membrane potential was measured by FACS analysis using JC-1 (Biovision) as a probe (Ahn et al., 2003). Cell cycle was analyzed on ethanol-fixed, RNaseA-treated cells staining with PI. In each spectrum, 10,000 gated events were recorded and analyzed with a FACSCalibur (BD Biosciences. San Jose, Calif.). All experiments were done in triplicate, error bars represent one standard deviation. Caspase inhibitor I (zVAD-fmk) was obtained from Calbiochem.

SMILES	mitochondrial translocation of Bax (Bid, Bax, Beclin-1; 10 μg/ml, 2 h post-treatment)	Beclin-1 translocation to the mitochondria (Bid, Bax, Beclin-1; 10 μg/ml, as early as 1 h post-treatment)	activation of Bid (Bid, Bax, Beclin-1; 10 μg/ml, total cell lysates)	Beclin-1 message or protein expression (RT-PCR, whole cell lysates) (Bid, Bax, Beclin-1; data not shown)	caspase-3/7, -8, and -9 activities (caspases-3/7, -8, and -9)	caspase 2 and caspase 9 induction ([1]; 10 μM, after 48 hrs)	caspase-3 induction ([1]; 10 μM, after 48 hrs)	caspase 9 activation ([1]; 30 μM, data not shown)	apoptosis (PANC-1 cells)	necrosis (PANC-1 cells)
COc1ccc(C2c3ccc(O)c(C)c3OCC2c2ccc(O)cc2)cc1 (stereo not shown) [Compound 1, 3-(4-hydroxyphenyl)-4-(4-methoxyphenyl)-8-methylchroman-7-ol]	induces mitochondrial translocation	translocates to the mitochondria	does not induce	no changes	no changes					
COc1ccc(C2c3ccc(O)cc3OCC2c2ccc(O)cc2)cc1 (stereo not shown) [Compound 10, 3-(4-hydroxyphenyl)-4-(4-methoxyphenyl)chroman-7-ol]						neither caspase 2 or caspase 9 were induced	modestly induced	activated	induced apoptosis in a dose-dependent fashion	Very little necrosis
